Literature values as cited in US8354043B2, “Natural gas odorization” (Enersol Inc., N.A.L.P., priority 2008, dated 2013).
Counter-ions that a name gives are not always drawn.

Settings: for Pvap @ 25° C. (vapor pressure): 25° C. and 1 atm; for Pvap @ 20° C. (vapor pressure): 20° C. and 1 atm

Molecule | Pvap @ 25° C. (vapor pressure) | Pvap @ 20° C. (vapor pressure) [psi]
CCC(=O)C(C)=O [Compound 23, 2,3-Petanedione] | 0.60 psi | –
CCOC=O [Compound 47, Ethyl formate] | 4.74 psi | –
O=CC1CCCC1 [Compound 36, Cyclopentaldehyde] | – | 0.17
CC(=O)CC(C)=O [Compound 25, Aceylacetone] | 0.06 psi | 0.13
O=CCCCC=O [Compound 41, Pentane-1,5-dial] | 0.01 psi | –
CCCOC=O [Compound 48, Propyl formate] | – | 1.60
O=C1C=CCCC1 [Compound 9, 2-Cyclohex-2-en-1-one] | 0.07 psi | –
CC(=O)C1CCCC1 [Compound 21, 1-Cyclopentyl-ethanone] | 0.07 psi | –
3-Cyclohex-1-one [Compound 10] | 0.04 psi | –
O=c1ccocc1 [Compound 2, 4-Pyrone] | 0.004 psi | –
O=CCC=O [Compound 39, Malondialdehyde] | 0.09 psi | –
CC=CC=O [Compound 43, 2-Butenal] | – | 0.58
CCC(=O)CC(C)=O [Compound 26, 2,4-Hexandione] | 0.06 psi | –
O=C1CCCO1 [Compound 17, γ-Butyrolactone] | 0.01 psi | 0.03
O=CC=O [Compound 38, Ethanedial] | 4.93 psi | –
O=C1CCCCC1 [Compound 11, Cyclohexanone] | 0.08 psi | –
CC(=O)C1=CCCCC1 [Compound 13, 1-(1-Cyclohexen-1-yl)-ethanone] | 0.003 psi | –
O=C1C=CCC1 [Compound 18, 2-Cyclopenten-1-one] | 0.18 psi | –
O=CC1CCCCC1 [Compound 34, Cyclohexanal] | – | 0.05
CC(C)OC=O [Compound 49, Isopropyl formate] | – | 2.67
CC(=O)C1CCCCC1 [Compound 12, Cyclohexyl methyl ketone] | .02 psi | –
CCCC(=O)C(C)=O [Compound 24, 2,3-Hexanedione] | 0.06 psi | 0.19
CC(=O)C=O [Compound 42, 2-Oxo-propanal] | – | 0.52
C=CC(=O)CC [Compound 29, Ethyl vinyl ketone] | 0.74 psi | –
O=C1CC=CO1 [Compound 15, 2(3H)-Furanone] | 0.02 psi | –
CC(=O)CCC(C)=O [Compound 27, 2,5-Hexanedione] | 0.06 psi | 0.01
C=CC(C)=O [Compound 28, Methyl vinyl ketone] | 2.94 psi | –
